Measured values as given in patent publication US20200102349A1, “PEPTIDE REAGENTS AND METHODS FOR DETECTION AND TARGETING OF DYSPLASIA, EARLY CANCER AND CANCER” (THE REGENTS OF THE UNIVERSITY OF MICHIGAN, priority 2014, published 2020).
pKd: −log10 of the molar value. Where no end group is shown, it is not given here.

Assays:
[1] = tested on: OE21 human esophageal SCC cells; experiment: Binding of FITC-labeled peptide to esophageal SCC cells on confocal microscopy; assay type: cell-based
Method: We have further validated specific binding of the FITC-labeled peptide to EGFR on co-localization with anti-EGFR antibody. A total of ˜7.5×10^3 OE21 cells were grown to ˜70% confluence on cover slips and fixed with methanol for 5 min at ˜20° C. The cells were incubated for 2 hours at RT with 1:500 dilution of primary anti-EGFR mAb (199.12, Neomarkers). The cells were incubated with 1:500 dilution of secondary Cy5.5-labeled antibody for 1 hour at RT, and mounted with ProLong Gold with DAPI (Invitrogen). On confocal microscopy, we observe specific binding of Cy5.5-labeled anti-EGFR antibody (red) to the membrane (arrow) of OE21 cells, FIG. 8A. We then added the FITC-labeled peptide to the OE21 cells. After 10 min for incubation at 37° C., co-localization of the peptide (green) with the antibody (red) to the membrane (arrow) of OE21 cells can be observed, FIG. 8B.

SW480 cells = experiment: Peptide binding to colorectal cancer cells on confocal microscopy (SW480); assay type: cell-based, human; details: SW480, 5 μM, 3 min
Method: (§1) HT29, SW480, and SW620 cells (˜10^3) were grown on cover slips to ˜80% confluence. The cells were washed 1× with PBS and incubated with 5 μM of QRH*-Cy5.5 and PEH*-Cy5.5 for 3 min at RT. The cells were then washed 3× in PBS, fixed with 4% paraformaldehyde (PFA) for 5 min, washed 1× with PBS, and then mounted on glass slides with ProLong Gold reagent containing DAPI (Invitrogen). Confocal fluorescence images were collected with FITC, Cy5.5, and DAPI filters (Leica Inverted SPSX Confocal Microscope System) using a 63× oil-immersion objective. Fluorescence intensities from 5 cells in 2 independent images were quantified using custom Matlab (Mathworks) software.
(§2) We assessed binding of QRH*-Cy5.5 to a panel of colorectal cancer cells that vary in EGFR expression level on confocal microscopy. We observed binding of QRH*-Cy5.5 to the surface (arrows) of HT29, SW480, and SW620 cells with decreasing strength, FIG. 3A-C, scale bars 30 μm. […] Results are an average of 10 cells from 2 independent images. EGFR expression is shown on Western blot, FIG. 3H.

SW620 cells = experiment: Peptide binding to colorectal cancer cells on confocal microscopy (SW620); assay type: cell-based, human; details: SW620, 5 μM, 3 min
Method: as §1, §2

HT29 cells [2] = experiment: Peptide binding to colorectal cancer cells on confocal microscopy (HT29); assay type: cell-based, human; details: HT29, 5 μM, 3 min
Method: as §1, §2

EGFR [3] = target: T1, EGFR (Homo sapiens, UniProt P00533); experiment: siRNA knockdown of EGFR in HT29 cells, confocal fluorescence microscopy; assay type: cell-based; set-up: endogenous in cells; host or cells: HT29 human colorectal adenocarcinoma cells (ATCC)
Method: as §1
We used siRNA to knockdown expression of EGFR in HT29 cells. We used ON-TARGETplus human EGFR siRNA and ON-TARGETplus non-targeting pool (Thermo Scientific) per manufacturer's protocol. 5 μL of siRNA at 5 μM/L concentration was transfected into HT29 cells using DharmaFECT (Thermo Scientific). QRH*-Cy5.5 and PEH*-Cy5.5 were incubated with HT29 siEGFR and siCL cells. The cells were fixed with either 4% PFA or methanol. A 1:1000 dilution of primary monoclonal mouse anti-EGFR antibody (Thermo Scientific, # MS-396, clone 199.12, IgG2a isotype) was incubated overnight at 4° C. Afterwards, the cells were washed 3× with PBS, and further incubated with 1:500 dilution of AF488-labeled secondary goat anti-mouse IgG antibody (Life Technologies, # A-11029) for 1 hour at RT, washed 3×, and then mounted on glass slides with ProLong Gold reagent containing DAPI (Invitrogen). Confocal fluorescence images were collected with FITC, Cy5.5, and DAPI filters using a 63× oil-immersion objective.
We validated specific binding of QRH*-Cy5.5 to EGFR on siRNA knockdown in HT29 cells. On confocal microscopy, QRH*-Cy5.5 (red), FIG. 2A, and AF488-labeled anti-EGFR (green), FIG. 2B, bind strongly to the surface (arrows) of control HT29 cells (transfected with siCL, non-targeting siRNA), scale bars 30 μm. […] The results (mean±std) for QRH*-Cy5.5, anti-EGFR AF488, and PEH*-Cy5.5 to control cells (siCL) were 7.8±1.7, 3.1±1.0, and 1.6±0.3 AU, respectively, and to EGFR knockdown cells (siEGFR) were 2.5±0.8, 1.0±0.4, and 1.9±0.7 AU, respectively, *P<0.01 by paired t-test, FIG. 2G. Results are an average of 10 cells from 2 images performed independently. EGFR expression is shown on Western blot, FIG. 12H.

[4] = tested on: colonic dysplasia (flat lesions and polyps); experiment: In vivo NIR fluorescence endoscopy of colon in CPC;Apc mouse; details: for mean (±SD) log of the T/B ratio: topical 100 μM, 5 min incubation
Method: For the in vivo fluorescence images of mouse colon, the T/B ratios for flat dysplasia and polyps were log-transformed to improve normality. The fold-change between classification pairs was estimated using the anti-log of the difference in the log-transformed data. Differences in results between the experimental and control peptides were evaluated on t-test. *P<0.05 was considered significant. Similar methods were used to evaluate the ex vivo fluorescence images of human colonic specimens. The results were plotted on a receiver-operator characteristic (ROC) curve. Co-localization of peptide and antibody binding was evaluated on Pearson's correlation coefficient. All analyses were performed using custom Matlab software (MathWorks Inc).
Mouse imaging studies were performed with approval of the University of Michigan Committee on the Use and Care of Animals (UCUCA). The mice were housed in pathogen-free conditions and supplied water ad libitum under controlled conditions of humidity (50±10%), light (12/12 hour light/dark cycle) and temperature (25° C.). Anesthesia was induced and maintained via a nose cone with inhaled isoflurane mixed with oxygen at a concentration of 2-4% at a flow rate of ˜0.5 L/min. The colon was first rinsed with tap water to remove mucous and debris. White light illumination was used first to identify anatomic landmarks, including polyps, mucosal folds, colonic segment, and distance of endoscope tip from anus, to register images with histology. The Cy5.5-labeled peptides were delivered at a concentration of 100 μM in a volume of 1.5 mL through the 3 Fr instrument channel. After 5 min for incubation, the colon was rinsed 3× with a tap water to remove the unbound peptides. After imaging was completed, the mice were euthanized. The colon was resected, and divided along the longitudinal axis. Flat lesions and polyps were identified on fluorescence, excised perpendicular to the mucosal surface, and processed for histology (H&E). We collected images from mice (n=5) that ranged in age from 7 to 10 months.
Imaging was performed using a small animal endoscope (Karl Storz Veterinary Endoscopy).^39 A xenon light source provides white light illumination via a fluid light cable. A diode-pumped solid state laser (TechnicaLaser Inc) provides excitation at λex=671 nm. The laser beam is expanded to a diameter of 3 mm to fill the aperture of the light cable. The laser power at the tip of the endoscope is <2 mW. The white light images reflect off a dichroic mirror (Semrock Inc, # FF685-Di02-25×36, λc=685 nm), and are focused by an achromatic doublet (Edmund Optics Inc, #32-323). They pass through a neutral density filter (OD 1), and are detected by a color camera (Point Grey Research, # GX-FW-28S5C-C). The fluorescence images pass through the dichroic and a band pass filter (Semrock Inc, # FF01-716/40-25, λC=716 nm, Δλ=40 nm), and are focused on a monochrome camera (Point Grey Research, # GX-FW-28S5M-C). All videos (1932×1452 resolution) are recorded at 15 frames per sec via a firewire connection.
White light and fluorescence videos were exported in avi format with 24 (RGB) and 8 (grayscale) bit digital resolution for the color and fluorescence images, respectively. […] Individual frames were exported using custom Matlab software. On the fluorescence images, 3 regions of interest (ROI, 25×25 pixels) were picked at random within the dysplastic lesion and within adjacent areas of normal-appearing mucosa. The mean intensities within these ROI's on the fluorescence images were measured. The target to-background (T/B) ratio for each image was determined by ratioing the mean intensities of these two ROIs.

HT29 cells [5] = experiment: Apparent association time constant on flow cytometry; assay type: binding, human
Method: We measured the apparent association time constant of the peptide to HT29 cells as an assessment of binding onset. HT29 cells were grown to […] confluence in 10 cm dishes, and detached with PBS-based cell dissociation buffer (Invitrogen). Cells (˜10^5) were incubated with 5 μM QRH*-Cy5.5 at 4° C. for various time intervals ranging from 0 to 20 min. The cells were centrifuged, washed with cold PBS, and fixed with 4% PFA. Flow cytometry analysis was performed as described above, and the median fluorescence intensity (y) was ratioed with that of HT29 cells without addition of peptide at different time points (t) using Flowjo software. The rate constant k was calculated by fitting the data to a first order kinetics model, y(t)=Imax[1−exp^(−kt)], where Imax=maximum value,^60 using Prism 5.0 software (GraphPad Inc).

HT29 cells [6] = experiment: Apparent dissociation constant on flow cytometry; assay type: binding, human; details: 4° C., 1 hour
Method: We measured the apparent dissociation constant of the peptide to HT29 cells as an assessment of binding affinity. QRH*-Cy5.5 was serially diluted in PBS at concentrations of 0, 10, 25, 50, 75, 100, 125, 150 and 200 nM. HT29 cells (˜10^5) were incubated with QRH*-Cy5.5 at 4° C. for 1 hour, washed with cold PBS, and the mean fluorescence intensities were measured on flow cytometry. The equilibrium dissociation constant kd=1/ka was calculated by performing a least squares fit of the data to the non-linear equation […]. I0 and Imax are the initial and maximum fluorescence intensities, corresponding to no peptide and at saturation, respectively, and [X] represents the concentration of the bound peptide [Thomas et al., Clin Exp Metastasis, 26:105-119 (2009)]. Origin 6.1 data analysis software (OriginLab Corp) was used to calculate kd.

HT29 cells [7] = experiment: Competition for peptide binding with unlabeled peptide; assay type: cell-based, human; details: unlabeled peptide 0-500 μM, then 5 μM QRH*-Cy5.5, 4° C.
Method: Specific binding of QRH*-Cy5.5 to HT29 cells was validated on competitive inhibition with unlabeled QRH* peptide. A total of −10^3 HT29 cells were grown to −70% confluence on cover slips in triplicate. Unlabeled QRH* and PEH* peptide at 0, 50, 100, 150, 250, and 500 μM were added and incubated with the cells for 30 min at 4° C. The cells were washed and incubated with 5 μM of QRH*-Cy5.5 for another 30 min at 4° C. The cells were washed and fixed with 4% PFA for 5 min. The cells were washed with PBS and mounted with ProLong Gold reagent containing DAPI (Invitrogen). Fluorescence images were collected at each concentration using a 63× objective (Zeiss Axioskop 2 plus microscope), and intensities from 5 cells in 2 independent images were quantified using custom Matlab (Mathworks) software.

tumor xenograft = details: systemic administration; cited from earlier work
EGFR [8] = target: T1, EGFR; details: read-out: binding affinity; cited from earlier work

SHR*-FITC: FITC labeled SHRNRPRNTQPS (SHR*) (SEQ ID NO: 21) peptide (also: FITC label, site not given here)
binding on confocal fluorescence microscopy [1]: significantly increased fluorescence intensity
co-localization with Cy5.5-labeled anti-EGFR antibody ([1]; 10 min, 37° C.): co-localization

PEH*-Cy5.5: scrambled sequence PEHKRRQ (SEQ ID NO: 19) for control, Cy5.5-labeled (also: Cy5.5 label, site not given here) [reference compound]
fluorescence intensity of binding (mean±std) (SW480 cells): 1.2±0.3
fluorescence intensity of binding (mean±std) (SW620 cells): 0.8±0.3
fluorescence intensity of binding (mean±std) (HT29 cells [2]): 1.7±0.4
fluorescence intensity (mean±std) (EGFR [3]; EGFR knockdown HT29 cells (siEGFR)): 1.9±0.7 AU
fluorescence intensity (mean±std) (EGFR [3]; control HT29 cells (siCL, non-targeting siRNA)): 1.6±0.3 AU
mean (±SD) log of the T/B ratio ([4]; flat lesions (n=15)): 0.108±0.143
mean (±SD) log of the T/B ratio ([4]; polyps (n=15)): 0.186±0.233
NIR fluorescence signal from polyp and flat lesions in vivo ([4]; topical, distal colon, 5 min): minimal signal

QRHKPRE
binding time scale (onset) (HT29 cells [5]): < 2.5 min
apparent association time constant k (HT29 cells [5]; 5 μM, 4° C., flow cytometry): 0.406 min⁻¹
pKd (HT29 cells [6]): 7.30

QRH*: unlabeled QRH* peptide (QRHKPREGGGSK)
change of fluorescence intensity of QRH*-Cy5.5 binding on addition of unlabeled peptide (HT29 cells [7]): decrease in a concentration dependent manner

YHWYGYTPQNVI
time of peak accumulation / binding activity in tumor xenograft after injection (tumor xenograft): 4 h
pKd (EGFR [8]): 7.66

PEH*: unlabeled PEH* (control) (PEHKRRQGGGSK) [reference compound]
change of fluorescence intensity of QRH*-Cy5.5 binding on addition of unlabeled peptide (HT29 cells [7]): no change

CMYIEALDKYAC
time of peak accumulation / binding activity in tumor xenograft after injection (tumor xenograft): 8 h

LARLLT
time of peak accumulation / binding activity in tumor xenograft after injection (tumor xenograft): ~80 h
